# Data taken from patent US12390461B2, “Modulators of RAR-related orphan receptors (RORs)” (11949098 CANADA INC., priority 2018, dated 2025).
# Test system: Th17 polarization of human peripheral blood mononuclear cells
# Assay: Th17 polarization assay (IL-17A positive cells by flow cytometry)
# Assay type: cell-based
# Conditions: PBMC, 10 nM compound, 48 hours, triplicates, average of 50% over the listed compounds, p<0.05, read-out: inhibition of the polarization of Th17 cells (percentage of IL17A positive cells relative to total CD4 T cells)
# Description: This assay measures the phenotypic effects of the compounds on the production of interleukin 17A (IL-17A). IL-17A genes are regulated by ROR response elements (ROREs). Compounds that bind to ROR (LBD) can inhibit the binding of RORγ to ROREs DNA site. Compounds can also reduce the effect of the binding which is enhanced by the binding of the co-activator protein.
# Peripheral blood mononuclear cells were isolated by density gradient centrifugation. The principle of this method is that components of the blood have different densities and can be separated according to their relative density. […] This medium is denser than lymphocytes, monocytes, and platelets and they remain about it, but less dense than granulocytes and erythrocytes, which will drop below it. […] Four layers were form, each containing different cell types—the uppermost layer contain containing plasma was removed by pipetting. PBMCs layer and is a characteristically white and cloudy “blanket” was gently removed using a 10 ml pipette and added to warm medium or PBS (1:3) to wash off any remaining platelets and centrifuged at 400×g for 10 minutes. The pelleted cells were counted, and the percentage viability estimated using Trypan blue staining. Cells were frozen for long-term storage.
# To preserve PBMCs at ultra-low temperatures in liquid nitrogen, dimethyl sulfoxide (DMSO) was used as a cryoprotectant to reduce the formation of ice crystals and prevent cell damage. To freeze, freshly isolated PBMCs are resuspended to 5×10^6 cells/mL in freezing medium containing 10% DMSO and 90% fetal bovine serum (FBS) and were placed inside a freezing container at −80° C. overnight to allow gradual and even cooling. The following day, samples were moved to a liquid nitrogen tank for long-term storage.
# 500 ml bottle of RPMI at 4° C. was opened in a biological safety cabinet. Half of the media was transferred to a 500 ml 0.22 um bottle top filter (with the vacuum turned off). 59 ml filtered heat inactivated fetal bovine serum (FBS), 6 ml penicillin-streptomycin solution (100×), 6.0 ml of L-glutamine (100×), 6.0 ml MEM non-essential amino acids 100×, 6.0 ml of sodium pyruvate were added and the volume was brought up to 500 ml by adding the RPMI. Culture media were stored in 4° C. and used for duration of two weeks.
# PBMCs were thawed carefully to avoid loss of cell viability and functionality. Samples are removed from liquid nitrogen and placed on ice, after which they were thawed in a 37° C. water bath. Once there is a small crystal of ice left in the bottom on the tubes, 500 μL warm complete RPMI medium supplemented with 10% FBS, 1% penicillin-streptomycin, and L-glutamine was added dropwise. The cells were then transferred to Falcon tubes containing 10 mL warm medium and centrifuged for 10 minutes at 400×g to wash off the toxic DMSO. This wash step was repeated, and the cell pellet was then resuspended in medium to count as before. Once thawed, PBMCs was rested overnight to remove any apoptotic cell this increases viability and improves functionality and involves incubating the freshly thawed PBMCs in supplemented medium for approximately 18 hours. After this resting period, cells were washed to be used in culture.
# Culture medium was changed every other day for the whole duration. Compounds were added to the polarized cells at day 12 for 48 hours. At measurement day, CD3/CD28 beads were removed and cells were treated with cell stimulation cocktail for 5 hours at the end of 48 hours incubation. Plates were centrifuged at 400×g for 10 minutes. Supernatant was collected for further testing and cells were resuspended in 1×PBS and washed twice at 400×g before staining for surface and intracellular markers.
# The dye was used in 1:1000 concentration in 1×PBS. The cells were incubated in dye solution for 30 minutes in 4° C.
row,Structure (SMILES),inhibition at 0.01 µM
1,"C[C@@H]1CCN(C(=O)c2c(NC(=O)c3cccnc3)sc3c2CCCC3)[C@H](C)C1 [Compound 13, N-(3-((2R,4R)-2,4-dimethylpiperidine-1-carbonyl)-4,5,6,7-tetrahydrobenzo[b]thiophen-2-yl)nicotinamide]",30 to 70%
2,"CCC1CCc2c(sc(NC(=O)c3ccnn3C)c2C(=O)Nc2ccccc2C)C1 (stereo not drawn) [Compound 4, N-(6-ethyl-3-{[(2-methylphenyl)amino]carbonyl}-4,5,6,7-tetrahydro-1-benzothien-2-yl)-1-methyl-1H-pyrazole-5-carboxamide]",30 to 70%
3,"Cn1cnc(CNC(=O)c2c(NC(=O)c3cccnc3)sc3c2CCCC3)n1 [Compound 19, N-(3-(((1-methyl-1H-1,2,4-triazol-3-yl)methyl)carbamoyl)-4,5,6,7-tetrahydrobenzo[b]thiophen-2-yl)nicotinamide]",30 to 70%
4,"Cc1cnc(S(C)(=O)=O)nc1C(=O)Nc1sc2c(c1C(=O)c1ccccc1)CCCC2 [Compound 23, N-(3-benzoyl-4,5,6,7-tetrahydrobenzo[b]thiophen-2-yl)-5-methyl-2-(methylsulfonyl)pyrimidine-4-carboxamide]",30 to 70%
5,"CC1CCCN1C(=O)c1c(NC(=O)c2cccnc2)sc2c1CCCC2 (stereo not drawn) [Compound 12, N-(3-(2-methylpyrrolidine-1-carbonyl)-4,5,6,7-tetrahydro-benzo[b]thiophen-2-yl)nicotinamide]",30 to 70%
6,"O=C(Nc1sc2c(c1C(=O)c1ccccc1)CCCC2)c1cnccn1 [Compound 22, N-(3-benzoyl-4,5,6,7-tetrahydrobenzo[b]thiophen-2-yl)pyrazine-2-carboxamide]",30 to 70%
7,"CSc1ncc(Cl)c(C(=O)Nc2sc3c(c2C(=O)NCc2ccccc2)CCCC3)n1 [Compound 2, N-(3-(benzylcarbamoyl)-4,5,6,7-tetrahydrobenzo[b]thiophen-2-yl)-5-chloro-2-(methylthio)pyrimidine-4-carboxamide]",30 to 70%
8,"C[C@@H](C#N)NC(=O)c1c(NC(=O)c2cccnc2)sc2c1CCCC2 [Compound 20, (S)—N-(3-((1-cyanoethyl)carbamoyl)-4,5,6,7-tetrahydro-benzo[b]thiophen-2-yl)nicotinamide]",30 to 70%
9,"Cn1ccnc1SCC(=O)Nc1sc2c(c1C(=O)NCc1ccccc1)CCCC2 [Compound 16, N-benzyl-2-(2-((1-methyl-1H-imidazol-2-yl)thio)acetamido)-4,5,6,7-tetrahydrobenzo[b]thiophene-3-carboxamide]",30 to 70%
10,"CN1CCN(CC(=O)Nc2sc3c(c2C(=O)NCc2ccccc2)CCCC3)CC1 [Compound 10, N-benzyl-2-{[(4-methyl-1-piperazinyl)acetyl]amino}-4,5,6,7-tetrahydro-1-benzothiophene-3-carboxamide]",30 to 70%
11,"CC1CCN(CC(=O)Nc2sc3c(c2C(=O)NCc2ccccc2)CCCC3)CC1 [Compound 11, N-benzyl-2-{[(4-methyl-1-piperidinyl)acetyl]amino}-4,5,6,7-tetrahydro-1-benzothiophene-3-carboxamide]",30 to 70%
12,"CSc1ncc(Cl)c(C(=O)Nc2sc3c(c2C(=O)NC2CCS(=O)(=O)C2)CCC(C)C3)n1 (stereo not drawn) [Compound 3, 5-chloro-N-(3-{[(1,1-dioxidotetrahydro-3-thienyl)amino]-carbonyl}-6-methyl-4,5,6,7-tetrahydro-1-benzothien-2-yl)-2-(methylthio)-4-pyrimidine-carboxamide]",30 to 70%
13,"CN1CCN(C(=O)c2c(NC(=O)c3ccccc3F)sc3c2CCC(C(C)(C)C)C3)CC1 (stereo not drawn) [Compound 5, N-{6-tert-butyl-3-[(4-methyl-1-piperazinyl)carbonyl]-4,5,6,7-tetrahydro-1-benzothien-2-yl}-2-fluorobenzamide]",30 to 70%
14,"CC1CCc2c(sc(NC(=O)c3ccccc3F)c2C(=O)N2CCN(C)CC2)C1 (stereo not drawn) [Compound 6, 2-fluoro-N-{6-methyl-3-[(4-methyl-1-piperazinyl)carbonyl]-4,5,6,7-tetrahydro-1-benzothien-2-yl}benzamide]",30 to 70%
15,"O=C(CN1CCCCC1)Nc1sc2c(c1C(=O)NCc1ccccc1)CCCC2 [Compound 9, N-benzyl-2-[(1-piperidinylacetyl)amino]-4,5,6,7-tetrahydro-1-benzothiophene-3-carboxamide]",30 to 70%
16,"CCC1CCN(C(=O)c2c(NC(=O)c3cccnc3)sc3c2CCCC3)C1 (stereo not drawn) [Compound 15, N-(3-(3-ethylpyrrolidine-1-carbonyl)-4,5,6,7-tetrahydro-benzo[b]thiophen-2-yl)nicotinamide]",30 to 70%
17,"Cc1ccnc(SCC(=O)Nc2sc3c(c2C(=O)NCc2ccccc2)CCCC3)n1 [Compound 8, N-benzyl-2-({[(4-methyl-2-pyrimidinyl)thio]acetyl}amino)-4,5,6,7-tetrahydro-1-benzothiophene-3-carboxamide]",30 to 70%
18,"O=C(NCc1ccccc1)c1c(NC(=O)C(F)(F)F)sc2c1CCCC2 [Compound 7, N-benzyl-2-[(trifluoroacetyl)amino]-4,5,6,7-tetrahydro-1-benzothiophene-3-carboxamide]",30 to 70%
